Source: patent publication US7449571B2, “Halogenated aminoquinolines and oligonucleotides containing the same” (Board of Regents of the University of Nebraska, priority 2005, dated 2008)
Like-named read-outs stand apart in the source and are kept apart here.

Assays:
[1] = Li et al. 2003, Li et al. 2004; cited from earlier work

SMILES	pKa [1]	pKa (NaOAc buffer, pH 4.602-8.322, UV absorbance at 235 nm or fluorescence emission vs pH)	fraction of antiAT-F protonated (pH 8.0)
Nc1nc([C@H]2C[C@H](O)[C@@H](CO)O2)c2ccccc2n1 [antiAT, 2-amino-4-(2′-deoxy-β-D-ribofuranosyl)quinazoline]	4.8	–	–
Nc1cc([C@H]2C[C@H](O)[C@@H](CO)O2)c2cc(F)ccc2n1 [antiAT-F, 2-amino-6-fluoro-4-(2′-deoxy-β-D-ribofuranosyl)-quinoline]	–	6.7	approximately 2%
Nc1cc([C@H]2C[C@H](O)[C@@H](CO)O2)c2ccccc2n1 [antiGC, 2-amino-4-(2′-deoxy-β-D-ribofuranosyl) quinoline]	7.2	–	–
